Experimental data from ChEMBL document CHEMBL1201862, “PubChem BioAssay data set” (2004).
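Briefly, cells in 96-well plates were exposed to five compound concentrations for 48 h, and endpoints were estimated by linear interpolation. GI50 = concentration required for 50% inhibition of growth.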 Calls of active or inactive are those of the source. Cut-off read from the data, not from the text of the source: active = GI50 up to about 1.1 µM and inactive = higher.

Assays:
Test in all cases: inhibition of tumour cell growth, NCI panel, 48 h
M14 = test system: M14
HL-60 = test system: HL-60
KM12 = test system: KM12
LOX IMVI = test system: LOX IMVI
OVCAR-5 = test system: OVCAR-5
OVCAR-4 = test system: OVCAR-4
Malme-3M = test system: Malme-3M
NCI-H23 = test system: NCI-H23
OVCAR-3 = test system: OVCAR-3
A498 = test system: A498
SK-MEL-28 = test system: SK-MEL-28
SF-539 = test system: SF-539
HOP-92 = test system: HOP-92
SNB-75 = test system: SNB-75
DMS-114 = test system: DMS-114
SF-268 = test system: SF-268
HOP-62 = test system: HOP-62
UACC-62 = test system: UACC-62
SW-620 = test system: SW-620
NCI/ADR-RES = test system: NCI/ADR-RES

Row | SMILES | GI50 (M14) | GI50 (HL-60) | GI50 (KM12) | GI50 (LOX IMVI) | GI50 (OVCAR-5) | GI50 (OVCAR-4) | GI50 (Malme-3M) | GI50 (NCI-H23) | GI50 (OVCAR-3) | GI50 (A498) | GI50 (SK-MEL-28) | GI50 (SF-539) | GI50 (HOP-92) | GI50 (SNB-75) | GI50 (DMS-114) | GI50 (SF-268) | GI50 (HOP-62) | GI50 (UACC-62) | GI50 (SW-620) | GI50 (NCI/ADR-RES)
1 | Oc1ccc(Br)cc1/C=N/c1ccc(Oc2ccc(/N=C/c3cc(Br)ccc3O)cc2)cc1 | > 19.6 µM (inactive) | > 19.6 µM (inactive) | > 19.6 µM (inactive) | > 19.6 µM (inactive) | > 19.6 µM (inactive) | > 19.6 µM (inactive) | > 19.6 µM (inactive) | > 19.6 µM (inactive) | > 19.6 µM (inactive) | > 19.6 µM (inactive) | > 19.6 µM (inactive) | > 19.6 µM (inactive) | > 19.6 µM (inactive) | > 19.6 µM (inactive) | > 19.6 µM (inactive) | > 19.6 µM (inactive) | > 19.6 µM (inactive) | > 19.6 µM (inactive) | > 19.6 µM (inactive) | 
2 | CCCCCCCCCC(=O)OCC1OC(n2cc(F)c(=O)[nH]c2=O)C(NC(=O)OCc2ccccc2)C(OC(=O)CCCCCCCCC)C1O (stereo unspecified) | 52.2 µM (inactive) | 24.1 µM (inactive) | 31 µM (inactive) | 16.6 µM (inactive) |  | 16.6 µM (inactive) | 24.2 µM (inactive) | 25.5 µM (inactive) | 21.2 µM (inactive) | 25.1 µM (inactive) | 42.1 µM (inactive) | 40.8 µM (inactive) | 18.2 µM (inactive) | 16.3 µM (inactive) | 18.8 µM (inactive) | 51.4 µM (inactive) | > 100 µM (inactive) | 44.2 µM (inactive) | 26.4 µM (inactive) | 
3 | CC(=O)OC1OC2C(NC(=O)OC(C)(C)C)C1CC2(OCc1ccccc1)OCc1ccccc1 (stereo unspecified) | 20.5 µM (inactive) | 12.8 µM (inactive) | 27.8 µM (inactive) | > 10 µM (inactive) | 28.3 µM (inactive) |  | 14.4 µM (inactive) | 18.8 µM (inactive) | 16.5 µM (inactive) | 19.4 µM (inactive) | 20.9 µM (inactive) | 18.1 µM (inactive) | 12.5 µM (inactive) | 36.2 µM (inactive) | 18.7 µM (inactive) | 35.7 µM (inactive) | 28.2 µM (inactive) | 19 µM (inactive) | 32.8 µM (inactive) | 
4 | Cc1n[nH]c(=S)n(C)c1=S | > 100 µM (inactive) |  |  | > 100 µM (inactive) | > 100 µM (inactive) | > 100 µM (inactive) | > 100 µM (inactive) | > 100 µM (inactive) | > 100 µM (inactive) | > 100 µM (inactive) | > 100 µM (inactive) | > 100 µM (inactive) | 91.2 µM (inactive) | > 100 µM (inactive) | > 100 µM (inactive) | > 100 µM (inactive) | > 100 µM (inactive) | > 100 µM (inactive) | > 100 µM (inactive) | 
5 | C[C@@]1(O)CC[C@]2(C)C3CCCC3[C@H]12 (stereo partly specified) | > 100 µM (inactive) | > 100 µM (inactive) | > 100 µM (inactive) | > 100 µM (inactive) | > 100 µM (inactive) | > 100 µM (inactive) | > 100 µM (inactive) | > 100 µM (inactive) | > 100 µM (inactive) | > 100 µM (inactive) | > 100 µM (inactive) | > 100 µM (inactive) | > 100 µM (inactive) | > 100 µM (inactive) | > 100 µM (inactive) | > 100 µM (inactive) | > 100 µM (inactive) | > 100 µM (inactive) | > 100 µM (inactive) | 
6 | COc1ccccc1C12OC(=O)C1(C)Oc1ccccc1C2=O (stereo unspecified) | > 100 µM (inactive) | > 100 µM (inactive) | > 100 µM (inactive) | 26.8 µM (inactive) | > 100 µM (inactive) | > 100 µM (inactive) | > 100 µM (inactive) | > 100 µM (inactive) | > 100 µM (inactive) | > 100 µM (inactive) | > 100 µM (inactive) | > 100 µM (inactive) | 65 µM (inactive) | 34.8 µM (inactive) | > 100 µM (inactive) | > 100 µM (inactive) | > 100 µM (inactive) | > 100 µM (inactive) | > 100 µM (inactive) | 
7 | FC(F)(F)c1ccc(C2SCc3nc4ccccc4n32)cc1 (stereo unspecified) |  | 3.13 µM (inactive) | 50 µM (inactive) |  | 15.5 µM (inactive) |  | > 100 µM (inactive) | 5.89 µM (inactive) | > 10 µM (inactive) | 81.8 µM (inactive) | > 100 µM (inactive) | > 100 µM (inactive) | 1.11 µM (active) | 60 µM (inactive) | 7.21 µM (inactive) | 95.3 µM (inactive) |  | 26.4 µM (inactive) | > 100 µM (inactive) | 
8 | CC1(C)C(=O)C(=Cc2ccco2)C1=O | > 100 µM (inactive) | > 100 µM (inactive) | > 100 µM (inactive) | > 100 µM (inactive) | > 100 µM (inactive) | > 100 µM (inactive) | > 100 µM (inactive) | > 100 µM (inactive) |  | > 100 µM (inactive) | > 100 µM (inactive) | > 100 µM (inactive) | > 100 µM (inactive) | > 100 µM (inactive) | > 100 µM (inactive) | > 100 µM (inactive) |  | > 100 µM (inactive) | > 100 µM (inactive) | 
9 | COc1cc([C@@H]2c3cc4c(cc3[C@@H](NC(=O)c3ccc([N+](=O)[O-])cc3)C3COC(=O)[C@@H]32)OCO4)cc(OC)c1O (stereo partly specified) | 0.653 µM (active) | 0.0432 µM (active) | 1.08 µM (active) | 0.318 µM (active) | 1.87 µM (inactive) | 8.04 µM (inactive) | 0.817 µM (active) | 0.258 µM (active) | 1.76 µM (inactive) | 1.28 µM (inactive) | 1.97 µM (inactive) | 0.275 µM (active) | 0.7 µM (active) | 0.809 µM (active) | 0.31 µM (active) | 1.6 µM (inactive) | 0.128 µM (active) | 0.241 µM (active) | 0.147 µM (active) | 
10 | O=C(c1ccccc1)C1(Br)S(=O)(=O)OCCOS1(=O)=O | > 100 µM (inactive) | > 100 µM (inactive) |  | > 100 µM (inactive) | > 100 µM (inactive) | > 100 µM (inactive) | > 100 µM (inactive) | > 100 µM (inactive) | > 100 µM (inactive) | > 100 µM (inactive) | > 100 µM (inactive) | > 100 µM (inactive) | > 100 µM (inactive) | > 100 µM (inactive) | > 100 µM (inactive) | > 100 µM (inactive) | > 100 µM (inactive) | > 100 µM (inactive) | > 100 µM (inactive) | 
11 | NC1=NN(c2ccccc2)C(=O)C1/C(=N\NC(=O)c1cc2ccccc2cc1O)C(=O)Nc1ccc(Cl)cc1 (stereo unspecified) | 20.7 µM (inactive) | 3.57 µM (inactive) | 27.9 µM (inactive) |  | 31.4 µM (inactive) | 18.5 µM (inactive) | 30.8 µM (inactive) | 24.7 µM (inactive) | 10.9 µM (inactive) | 24.2 µM (inactive) | 25.1 µM (inactive) | 23.9 µM (inactive) | 23.1 µM (inactive) | 4.72 µM (inactive) | 17.9 µM (inactive) | 12.7 µM (inactive) | 36.6 µM (inactive) | 19 µM (inactive) | 32.1 µM (inactive) | 
12 | CN(C)c1n/c(=N/Cc2ccco2)ss1 | 21 µM (inactive) | 1.59 µM (inactive) | 3.72 µM (inactive) | 18.5 µM (inactive) | > 40.5 µM (inactive) | 30.3 µM (inactive) | 18.7 µM (inactive) | 25.6 µM (inactive) | 8.97 µM (inactive) | > 78 µM (inactive) | 11.6 µM (inactive) | 13 µM (inactive) |  | 20.5 µM (inactive) | 3.33 µM (inactive) | 11.7 µM (inactive) | 24.9 µM (inactive) | 5.32 µM (inactive) | 26.2 µM (inactive) | 75.3 µM (inactive)
13 | O=C(NC1C2CC3CC(C2)CC1C3)/C(Cl)=C1/Sc2ccccc2NC1=O (stereo unspecified) | > 100 µM (inactive) | 62.2 µM (inactive) | > 62.8 µM (inactive) | 99.3 µM (inactive) | > 100 µM (inactive) | > 100 µM (inactive) | > 100 µM (inactive) | > 100 µM (inactive) | > 100 µM (inactive) | > 100 µM (inactive) | > 100 µM (inactive) | > 100 µM (inactive) | > 76.4 µM (inactive) | 97.9 µM (inactive) | > 65.5 µM (inactive) | > 100 µM (inactive) | > 100 µM (inactive) | > 89.5 µM (inactive) | > 100 µM (inactive) | 
14 | COc1ccc(N2C(=O)C3CC(c4ccc(Br)cc4)c4c([nH]c5ccccc45)C3C2=O)cc1 (stereo unspecified) | 19.5 µM (inactive) | 12.8 µM (inactive) | 13.1 µM (inactive) | 4.69 µM (inactive) | 22.6 µM (inactive) | 3.25 µM (inactive) | 14.8 µM (inactive) | 11.4 µM (inactive) |  | 9.59 µM (inactive) | 11.5 µM (inactive) | 3.52 µM (inactive) | 12.3 µM (inactive) | 9.12 µM (inactive) | 6.93 µM (inactive) | 6.78 µM (inactive) | 3.91 µM (inactive) | 16.1 µM (inactive) | 5.81 µM (inactive) | 
15 | COc1ccc(/C=C\c2cc(OC)c(OC)c(OC)c2)cc1 | 0.00024 µM (active) | 0.000244 µM (active) | 0.000124 µM (active) | 0.000632 µM (active) | 43.5 µM (inactive) |  | 0.00184 µM (active) | 0.000357 µM (active) | < 0.0001 µM (active) | < 0.01 µM (active) | < 0.01 µM (active) | 0.000389 µM (active) | 0.0127 µM (active) | 0.000237 µM (active) | 0.0013 µM (active) | 0.000766 µM (active) | 0.1 µM (active) | < 0.0001 µM (active) | 0.000237 µM (active) | 
